Where “and” joins values, the source holds several entries; their conditions need not be identical. Equal entries are not always repeated. Where two headings read alike, the source gives them in different places.

Experimental findings from patent US20040259878A1, “Fluoromethotrexates and uses therefor” (priority 2003, published 2004) are described below.

Experiment [1] deals with MTX-sensitive HT-1080 tumor xenograft. In words: Tumor response (in vivo surviving fraction) with leucovorin rescue, HT-1080 xenograft. Further details: species or system athymic nude mice. How it is done:
At 6 hours post 3′-fluoromethotrexate administration mice received i.p. hydration of 1.0 cc normal saline and at 24 hours received leucovorin (Bedford Laboratories, Bedford, Ohio) rescue therapy (36). This protocol allows the mice to survive what would otherwise be a fatal dosage of 3′-fluoromethotrexate and is analogous to that used in high-dose MTX therapy in humans. Tumor growth was monitored post-therapy.
The 3 perpendicular axes of the tumor were measured with a micrometer and the tumor volume modeled as a spheroid, i.e., v=π/6a·b·c, where a, b, c are the dimensions of the tumor axes in cm.
The parameter DT0 is the mean doubling time of the untreated, control group for each xenograft tumor model and TGD is the tumor growth delay for the treated tumor (the difference in tumor doubling time between the treated tumor and DT0).
Analysis of the tumor growth post-therapy allows for a comparison of the efficacy of MTX and 3′-fluoromethotrexate in terms of SF, the fraction of cells in the pretreatment tumor surviving therapy (Eqn. 3).

The test system of experiment [2] is human sarcoma cell line HT-1080. In words: In vitro cytotoxicity against HT-1080, XTT/PMS cell viability assay.

`CN(Cc1cnc2nc(N)nc(N)c2n1)c1ccc(C(=O)N[C@@H](CCC(=O)O)C(=O)O)cc1` [MTX, methotrexate]: the “SF, in vivo surviving fraction” value in experiment [1] (200 mg/kg, HT-1080 model) amounted to 0.64±0.08; in experiment [1] (400 mg/kg i.v. bolus, HT-1080 model), 0.56±0.07. Moreover, the IC50 in experiment [2] (Homo sapiens, HT-1080, 24 h, read-out: IC50 for 24 h drug exposure, normal medium = RPMI-1640 medium + 10% FCS, 24 h exposure) was 445 ± 148 nM; in experiment [2] (Homo sapiens, HT-1080, 24 h, read-out: IC50 for 24 h drug exposure, treated medium = thymidine-free RPMI-1640 + 10% FCS, 24 h exposure), 69 ± 19 nM.
As to “N-(2-Fluoro-4-amino-4-deoxy-N-methyl-pteroyl)-L-glutamic acid [FMTX]”, in experiment [1] (mouse, in vivo), the “SF, in vivo surviving fraction” value was 0.29±0.06 and 0.42±0.04. Besides, the IC50 in experiment [2] (read-out: IC50 for 24 h drug exposure, normal medium = RPMI-1640 medium + 10% FCS, 24 h exposure) was 345 ± 117 nM; in experiment [2] (read-out: IC50 for 24 h drug exposure, treated medium = thymidine-free RPMI-1640 + 10% FCS, 24 h exposure), 26 ± 5 nM.
